# Measured values as given in patent US11559528B2, “BACE1 inhibition for the treatment of cancer” (The Cleveland Clinic Foundation, priority 2019, dated 2023).
# Entries after “also recorded” stand apart in the source; their conditions may differ.
# Experiments:
# [1] = test system: iPSC-derived M2 macrophages; assay: Fluorescent phagocytosis screening assay, iPSC-derived M2 macrophages against glioma cells; format: cell-based, human
# [2] = test system: HepG2 liver cancer cells; assay: Subcutaneous liver cancer xenografts (HepG2); format: in vivo, mouse; conditions: 50 mg/kg once daily oral gavage, from two weeks after inoculation; p<0.05
# Excerpt: (A-C) A preclinical trial of MK-8931 for liver cancer treatment xenograft models. HepG2 liver cancer cells (5×106) were transplanted into mouse right flank through subcutaneous injection to establish subcutaneous liver cancer xenografts. […] Tumors dissected from mice of each group were photographed (B) and weighed (C).
# [3] = test system: iPSC-derived M2 macrophages; assay: Fluorescent phagocytosis assay, iPSC-derived M2 macrophages against lung ADC cells (H1002); format: cell-based, human; parameters: dose or concentration left out as unconfirmed; conditions: MK-8931 two days, p<0.01
# Excerpt: FIG. 10, panels A-C. MK-8931 Treatment Promotes Phagocytosis of iPSC-derived M2 Macrophages against Human Lung ADC Cancer Cells. (A) Immunofluorescent analysis of macrophage marker expression in iPSC-derived M2 macrophages. The iPSC-derived M2 macrophages (GFP+) and the matched iPSCs (GFP+, control) were stained with specific antibodies against IBA1 (total macrophage marker, in red) and FIZZ1 (M2 macrophage marker, in red) and then counterstained with DAPI (in blue). […] (B and C) In vitro macrophage phagocytosis assay showing that the BACE1 inhibitor MK-8931 promoted phagocytosis of the iPSC-derived macrophages against human lung ADC cancer cells. […] Scale bars represent 3 μM. […]
# In this assay, we detected macrophage phagocytosis as fluorescent inclusion bodies of the cancer cells (tdTomato^+) within macrophages (GFP^+). […] Thus, potential small molecules that can activate macrophages (GFP*) to phagocytize glioma cells (tdTomato*) could be detected under a fluorescent microscope during the screening (FIG. 1C).
# To screen for potential small molecules activating phagocytosis of iPSC-derived M2 macrophages against human cancer cells, GFP^+ iPSC-derived M2 macrophages (5×10^4 cells) were seeded in each well of 24-well plates and treated by small molecules for two days. […] The phagocytosis was measured as the number of inclusion bodies of cancer cells (in red) within macrophages (in green).
# [4] = test system: AGS gastric cancer cells; assay: Subcutaneous stomach cancer xenografts (AGS); format: in vivo, mouse; conditions: 50 mg/kg once daily oral gavage, from two weeks after inoculation; p<0.05
# Excerpt: FIG. 22, panels A-C, show treatment with the BACE1 Inhibitor MK-8931 reduced tumor growth of gastric cancer. (A-C) A preclinical trial of MK-8931 for stomach cancer treatment in xenograft models. AGS gastric cancer cells (3×106) were transplanted into mouse right flank through subcutaneous injection to establish subcutaneous stomach cancer xenografts. […] Tumors dissected from mice of each group were photographed (B) and weighed (C).
# [5] = test system: intracranial xenografts of lung ADC (H1002); assay: Intracranial xenografts of lung adenocarcinoma (H1002) brain metastases; format: in vivo, mouse; conditions: 30 mg/kg once daily oral
# Description: The lung cancer cells (H1002, ADC) expressing luciferase were transplanted into mouse brains to establish intracranial xenografts of lung ADC. […] Data are shown as mean±SEM. * p<0.05, *** p<0.001, and NS (not significant)≥0.05; Student's t-test.
# The lung ADC cancer cells (H1002) expressing luciferase were transplanted into mouse brains to establish intracranial xenografts of lung ADC. […] IVIS was performed twice per week to monitor tumor growth. When humane endpoints occur, mouse was anesthetized and brains with xenografts were harvested for further analyses. […] Frozen xenograft sections were immunostained with a specific antibody against cleaved caspase-3 (in green) and counterstained with DAPI (in blue). […] Frozen xenograft sections were immunostained with a specific antibody against cleaved GLUT1 (in green) and counterstained with DAPI (in blue). […] Frozen xenograft sections were immunostained with a specific antibody against Ki-67 (in green) and counterstained with DAPI (in blue). […] Data are shown as mean±SEM of at least 6 images from 3-5 mice. * p<0.05 and ** p<0.01; Student's t-test.
# In brief, GSCs (T4121 and T387) or lung ADC cells (H1002) expressing luciferase were injected into the right cerebral cortex at a depth of 3.5 mm. Seven days after the implantation, IVIS was performed twice per week to monitor the tumor growth under the Spectrum CT Imaging System (PerkinElmer) before and after treatment. […] Mouse brains bearing the tumors were collected for immunofluorescent, histochemical and histological analyses.
# (§1) Primary antibodies were added to the sections or cells and incubated overnight at 4° C. […] After the incubation of the primary antibodies, the sections or cells were washed three times with cold PBS for five minutes each and then incubated with the secondary antibodies for one hour at room temperature. […] Finally, images were captured by a fluorescence microscopy (Leica DM4000) and further analyzed with ImageJ software.
# [6] = test system: GBM xenografts derived from T4121 GSCs; assay: MK-8931 combined with low dose irradiation in T4121 GBM xenografts
# Description: Glioma stem cells (T4121 GSCs) expressing luciferase were transplanted into mouse brains through intracranial injection to establish orthotopic GBM xenografts. Irradiation (2 Gy) was performed on Day 8 and Day 16. […] Representative bioluminescent images (B) at day 7 (before treatment) and day 15 (treatment for one week) are shown. […] Data are shown as mean±SEM. * p<0.05, ** p<0.01, * ** p<0.001, and NS (not significant)≥0.05 as indicated; Student's t-test. Ctl: Control; IR: Irradiation. […] Data are shown as mean±SEM. Log-rank analysis was used to assess the significance. Significances were shown as indicated. Ctl: Control; IR: irradiation.
# Frozen xenograft sections were co-immunostained with specific antibodies against IBA1 (in green) and CD163 (in red) or HLA-DR (in red) and counterstained with DAPI (in blue). Representative immunofluorescent images showing the staining of IBA1 and the M2 TAM marker CD163 (A) or IBA1 and the M1 TAM marker HLA-DR (B) in the GBM xenografts. […] (D and E). […] Frozen xenografts sections were immunostained with a specific antibody against cleaved caspase-3 (in green) and counterstained with DAPI (in blue). […] Data are shown as mean±SEM from at least 5 images of 3-5 mice. * p<0.05 and ** p<0.01; Student's t-test. Scale bar represents 3 μM. Ctl: Control; IR: Irradiation; CC-3: Cleaved caspase-3.
# Seven days after the implantation, IVIS was performed twice per week to monitor the tumor growth under the Spectrum CT Imaging System (PerkinElmer) before and after treatment. […] Mouse brains bearing the tumors were collected for immunofluorescent, histochemical and histological analyses.
# Irradiation (IR) was performed with the Pantek X-ray irradiator (once per week) at low dose (2 Gy). To protect the mice and limit the side effect of irradiation, anesthetized mice were covered by a lead plate and only the tumor implantation sites were exposed to the fractioned radiation. Mice were sacrificed at the indicated time points or upon the appearance of the neurological signs. […] Only animals with accidental death (for example, due to infection or intracranial injection) were excluded from the data analysis.
# as §1
# [7] = test system: U937-derived M2 macrophages; assay: Immunoblot of macrophage markers in U937-derived M2 macrophages; parameters: expression of M2 macrophage markers (CD163 and ARG1): dose or concentration left out as unconfirmed
# Description: In brief, U937 cells were primed by PMA (5 nM) for two days to generate M0 macrophages and then incubated with IL4 (20 ng/mL), IL10 (20 ng/mL), and TGFβ (20 ng/mL) for three days to produce M2-like macrophages. (B) Immunoblot analyses of BACE1, the M2 macrophage markers (CD163 and ARG1), and the total macrophage marker IBA1 in U937 monocytes and the U937-derived M2 macrophages expressing shRNAs against BACE1 (shBACE1) or non-targeting sequence (NT). […] (D) Immunoblot analyses of the M2 macrophage markers (CD163 and ARG1), the M1 macrophage markers (iNOS and HLA-DR), and the total macrophage marker IBA1 in the U937-derived M2 macrophages expressing shRNAs against BACE1 (shBACE1: #1 or #2) or non-targeting control (shNT). The U937-derived M2 macrophages were transduced with shBACE1 shNT through lentiviral infection.
# In brief, U937 cells grown in a 10-cm tissue culture dish were primed by PMA (5 nM) for two days to produce M0 macrophages. Then the M0 macrophages were further induced by IL4 (20 ng/mL, Peprotech, 200-04), IL10 (20 ng/mL, Peprotech, 200-10), and TGFβ (20 ng/mL, Peprotech, 200-21) for three days to generate M2 macrophages.
# In brief, cells were lysed with the RIPA buffer [50 mM TrisHCl (pH7.4), 150 mM NaCl, 2 mM EDTA, 1% (v/v) NP-40, 0.1% (w/v) SDS, protease inhibitor (one tablet per 10 mL RIPA buffer, Roche)] for 20 minutes on ice. […] The lysates were collected and subjected to SDS-PAGE and blotted onto the PVDF membranes (ASI, XR730). After blockade with 5% (w/v) non-fat milk (RPI, M17200) in TBST, the membranes were incubated with primary antibodies overnight at 4° C. After the incubation of the first antibodies, the membranes were washed three times with TBST for ten minutes each. Then, the membranes were incubated with the second HRP-linked antibodies in the 5% milk for one hour at room temperature.
# [8] = test system: H1002 and H146 lung cancer cells; assay: Cell titer viability assay on lung cancer cells; format: cell-based, human; conditions: indicated concentrations, 72 hours, n=3
# Description: (A) Effects of BACE1 inhibitors on lung cancer cell proliferation. H1002 and H146 lung cancer cells were treated with the indicated concentrations of the BACE1 inhibitor AZD3293, MK-8931, AZD3839, or PF-06751979 (PF) for 72 hours. Cell viability was assessed by cell titer assay (n=3). (B-D) A preclinical trial of MK-8931 for lung cancer treatment in xenograft models. H1002 lung cancer cells (5×106) were transplanted into mouse right flank through subcutaneous injection to establish subcutaneous lung cancer xenografts. […] Tumors dissected from mice of each group were photographed (C) and weighed (D). […] Data are shown as mean SEM. p **<0.01, Student's t-test.
# [9] = cited from earlier work
# [10] = IR 2 Gy on Day 8 and Day 16 plus MK-8931 30 mg/kg once daily oral from Day 9, 30 mg/kg
# [11] = 0, 5, 10, 25, 50, and 100 μg/mL for three days
# [12] = 50 μg/mL for 0, 12, 24, 48, 72, or 96 hours
smiles,measurement,setting,value
CN1C(N)=N[C@](C)(c2cc(NC(=O)c3ccc(F)cn3)ccc2F)CS1(=O)=O [MK-8931],macrophage phagocytosis against cancer cells,[1],promotes macrophage phagocytosis against cancer cells
same,phagocytosis of iPSC-derived macrophages against human glioma cells (inclusion bodies),"[1]; MK-8931 50 μg/mL two days, T4121 tdTomato cells co-incubated two hours, p<0.001 vs vehicle",potently induced phagocytosis of iPSC-derived macrophages
same,screen of drug libraries and known inhibitors for promoters of macrophage phagocytosis: hit,[1]; glioma cells and lung ADC cells,hits
same,tumor growth (tumor weight),[2],significantly inhibited liver tumor growth
same,phagocytosis of iPSC-derived macrophages against human lung ADC cancer cells,[3],potently induced phagocytosis of iPSC-derived macrophages
same,tumor growth (tumor weight),[4],significantly reduced tumor growth of gastric cancer
same,tumor growth (mean bioluminescence),"[5]; Days 7, 14 and 21",significantly inhibited tumor growth of lung ADC brain metastases
same,M1 TAMs (HLA-DR+/IBA1+ cells),[5]; p<0.001,significantly increased M1 TAMs
same,M2 TAMs (CD163+/IBA1+ cells),[5]; p<0.001,significantly reduced M2 TAMs
same,survival (Kaplan-Meier),[5]; p<0.001 by log-rank,significantly extended the survival of animals bearing the intracranial lung ADC xenografts
same,cell proliferation (fraction of Ki-67+ cells),[5]; p<0.01,significantly reduced cell proliferation
same,apoptosis (fraction of cleaved caspase-3+ cells),[5]; p<0.05,significantly augmented apoptosis
same,in vivo TAM phagocytosis (inclusion bodies),[5]; p<0.05,significantly increased TAM phagocytosis against human lung ADC cells
same,vessel density (GLUT1+ cells),[5]; p<0.05,significantly reduced vessel density
same,"survival (Kaplan-Meier), IR plus MK-8931",[6]; [10],synergized with MK-8931 treatment to extend survival of the tumor-bearing animals; also recorded: longest survival extension among four experimental groups
same,"tumor growth (mean bioluminescence), IR plus MK-8931",[6]; [10],significantly synergized with MK-8931 treatment to inhibit GBM tumor growth; also recorded: strongest inhibition on GBM growth
same,"TAM subtype (CD163+ M2 vs HLA-DR+ M1), IR plus MK-8931",[6]; IR (2×2 Gy) plus MK-8931,effectively converted M2 TAMs (CD163+) into M1 macrophages (HLA-DR^+)
same,"apoptosis (fraction of cleaved caspase-3+ cells), IR plus MK-8931","[6]; IR (2×2 Gy) plus MK-8931 30 mg/kg, mean±SEM",25.9±3.1%
same,"apoptosis (fraction of cleaved caspase-3+ cells), MK-8931 treatment alone","[6]; MK-8931 30 mg/kg alone, mean±SEM",10.4±0.9%
same,"M1 marker expression (iNOS and HLA-DR), dose series",[7]; [11],induced M1 marker expression
same,"M2 marker expression (CD163 and ARG1), dose series",[7]; [11],inhibited M2 marker expression in a dose-dependent manner
same,"M1 marker expression (iNOS and HLA-DR), time course",[7]; [12],induced M1 marker expression in a time-dependent fashion
same,"M2 marker expression (CD163 and ARG1), time course",[7]; [12],inhibited M2 marker expression
same,M2 to M1 switch with ectopic expression of constitutively activated STAT3 (STAT3-C),"[7]; MK-8931 50 μg/mL three days, STAT3-C-Flag vs vector",attenuated the M2 to M1 switch induced by MK-8931 treatment
same,expression of total macrophage marker IBA1,[7]; MK-8931 (50 g/mL) three days,little effect
same,expression of M2 macrophage markers (CD163 and ARG1),[7]; MK-8931 three days,reduced expression of the M2 macrophage markers
same,lung cancer cell proliferation (cell viability),[8],suppressed lung cancer cell proliferation
same,efficacy in phase 3 AD clinical trials,[9]; AD patients,ineffectiveness in controlling AD progression or improving life quality of AD patients
same,tolerability / safety in AD clinical trials,"[9]; patients, Phase I to Phase III",well-tolerated for patients; also recorded: very safe in the clinical trials for AD treatment; also recorded: well-tolerated in human and showed little toxic effect; also recorded: very safe for patients
